Test results reported in ChEMBL document CHEMBL3045893, “QSAR analysis of N-myristoyltransferase inhibitors: antifungal activity of benzofurans” (Med Chem Res, 2009).

Target: T1, Glycylpeptide N-tetradecanoyltransferase (Candida albicans (strain SC5314 / ATCC MYA-2876) (Yeast), UniProt P30418)
T1 sequence (P30418 whole entry): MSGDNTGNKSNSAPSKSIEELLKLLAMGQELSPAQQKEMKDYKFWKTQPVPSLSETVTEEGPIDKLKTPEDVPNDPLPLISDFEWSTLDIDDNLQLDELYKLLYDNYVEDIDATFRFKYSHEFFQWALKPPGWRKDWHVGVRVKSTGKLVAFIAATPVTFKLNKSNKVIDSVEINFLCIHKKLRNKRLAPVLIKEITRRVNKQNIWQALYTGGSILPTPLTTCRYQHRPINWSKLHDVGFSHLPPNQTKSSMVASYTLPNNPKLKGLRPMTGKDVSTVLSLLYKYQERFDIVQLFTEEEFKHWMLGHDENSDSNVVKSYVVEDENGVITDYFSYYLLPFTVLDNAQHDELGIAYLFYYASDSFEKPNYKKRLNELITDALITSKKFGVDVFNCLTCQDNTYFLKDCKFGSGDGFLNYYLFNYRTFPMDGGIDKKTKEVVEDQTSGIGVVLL
Test: Inhibition of candida N-myristoyltransferase

How did the IC50 turn out when CCOC(=O)c1cc2c(OCCNCc3cccnc3)cccc2o1 was run?
The IC50 was 79000 nM.

For Cc1c(C(=O)Nc2ccccc2)oc2cccc(OCCNCc3cccnc3)c12, which IC50 is on record?
Its IC50 is 2200 nM.

With Cc1c(COc2ccccc2)oc2cccc(OCCNCc3cccnc3)c12 as the molecule, how does the IC50 read?
Its IC50 is 72 nM.

Cc1c(COc2ccc(Cl)cc2)oc2cccc(OCCNCc3cccnc3)c12 was tested. Which IC50 did it give?
The IC50 was 73 nM.

Which IC50 does the source give for CCOC(=O)c1oc2cccc(OCCNCc3ccccc3)c2c1C here?
The IC50 was 3300 nM.

Cc1c(COc2ccccc2C#N)oc2cccc(OCCNCc3cccnc3)c12 was tested. Which IC50 did it give?
The IC50 was 17 nM.

Cc1c(CCc2ccccc2)oc2cccc(OCCNCc3cccnc3)c12 was tested. Which IC50 did it give?
Its IC50 is 1200 nM.

Which IC50 does the source give for COCc1ccc2oc(-c3oc4cccc(OCCNCc5cccnc5)c4c3C)cc2c1 here?
Its IC50 is 3 nM.

Which IC50 does the source give for Cc1c(COc2ccccc2F)oc2cccc(OCCNCc3cccnc3)c12 here?
Its IC50 is 8.3 nM.

With CCOC(=O)c1oc2cccc(OCCNCc3cccnc3)c2c1C as the molecule, how does the IC50 read?
The IC50 was 100 nM.

For CCOC(=O)c1oc2cccc(OCCCCNC(C)(C)C)c2c1C, which IC50 is on record?
The IC50 was 4400 nM.

For Cc1c(COc2ccc(F)cc2)oc2cccc(OCCNCc3cccnc3)c12, which IC50 is on record?
The IC50 was 5.2 nM.

CCOC(=O)c1oc2cccc(OCCNCc3cccnc3)c2c1C(C)C was tested. Which IC50 did it give?
Its IC50 is 83000 nM.

How did the IC50 turn out when Cc1c(COc2cccc(F)c2)oc2cccc(OCCNCc3cccnc3)c12 was run?
The IC50 was 110 nM.

Which IC50 does the source give for CCOC(=O)c1oc2cccc(OCCNC(C)(C)C)c2c1C here?
The IC50 was 50000 nM.

For CCOC(=O)c1oc2cccc(OCC(O)CNC(C)(C)C)c2c1C (stereo not drawn), which IC50 is on record?
The IC50 was 1200 nM.

For CC(=O)c1nccn1-c1oc2cccc(OCCNCc3cccnc3)c2c1C, which IC50 is on record?
Its IC50 is 1 nM.

How did the IC50 turn out when CCOC(=O)c1oc2cccc(OCCCN3CCCCC3)c2c1C was run?
Its IC50 is 1600 nM.

With CCOC(=O)c1oc2cccc(OCCNCc3cccnc3)c2c1C1CC1 as the molecule, how does the IC50 read?
Its IC50 is 4400 nM.

With CCOC(=O)c1oc2cccc(OCCCCCNC(C)(C)C)c2c1C as the molecule, how does the IC50 read?
The IC50 was 1500 nM.

With CCOC(=O)c1oc2cccc(OCCNCc3cccnc3)c2c1CC as the molecule, how does the IC50 read?
Its IC50 is 10000 nM.

For Cc1c(COc2ccc(F)cc2F)oc2cccc(OCCNCc3cccnc3)c12, which IC50 is on record?
Its IC50 is 7.5 nM.

How did the IC50 turn out when Cc1c(COc2ccc(C#N)cc2)oc2cccc(OCCNCc3cccnc3)c12 was run?
Its IC50 is 9.4 nM.
